Reference: article PMC5352051, “Identification of a novel Polo-like kinase 1 inhibitor that specifically blocks the functions of Polo-Box domain” (Oncotarget, 2016)

What was measured:
[1] = test system: 12 human cancer cell lines; assay: MTT assay, panel of cancer cell lines; format: cell-based; details: all tested 12 human cancer cell lines; read-out: IC50 proliferation, range over cell lines
Method: The MTT assay was performed as described. In brief, cells were seeded at 3000~5000 cells/well into 96-well plates (200 μL/well) and incubated overnight. We replaced the growth medium with fresh medium containing T521 at several concentrations (two-fold dilutions and the initial concentration is 50 μM, 10 reactions total). After further incubation for 48 hrs in the presence of T521, the medium was removed from all wells and the cells were incubated with 200 μL of fresh medium for additional 24 hrs. We then added 22 μL of MTT solution (Amresco; 5 mg/mL in PBS) to each well and incubated the plate for 4 hrs at 37°C. After removing the medium, we dissolved the purple MTT-formazan crystals by adding 150 μL of DMSO to each well and recorded absorbance at 560 nm by Envision Multilabel Reader (PerkinElmer). The inhibition curve was plotted to determine the IC50 of various cell lines using GraphPad Prism5.0.

[2] = test system: PARP cleavage in HeLa cells; assay: Western blot of PARP cleavage; format: cell-based, human; details: 24 hrs
Method: We also performed a western blot assay to examine PARP cleavage, and the protocol was similar as describe above. Equal amount of proteins (30 μg/lane) were loaded, separated by 12% SDS-PAGE. Anti-PARP rabbit polyclonal antibody (Cat# 9542P; Cell Signaling Technology; 1:1500) was used as primary antibody. GAPDH was used as the loading control.

Plk1 PBD [3] = biological target: T1, Plk1 PBD (Homo sapiens, UniProt P53350); assay: Circular dichroism spectroscopy; details: complex with T521
T1 construct: (326-603 aa), Plk2 (355-685 aa), and Plk3 (335-646 aa); 6xHis (N); 6xHis (C); made in house; host or cells: E. coli Rosetta BL21(DE3)
T1 sequence (P53350 326-603): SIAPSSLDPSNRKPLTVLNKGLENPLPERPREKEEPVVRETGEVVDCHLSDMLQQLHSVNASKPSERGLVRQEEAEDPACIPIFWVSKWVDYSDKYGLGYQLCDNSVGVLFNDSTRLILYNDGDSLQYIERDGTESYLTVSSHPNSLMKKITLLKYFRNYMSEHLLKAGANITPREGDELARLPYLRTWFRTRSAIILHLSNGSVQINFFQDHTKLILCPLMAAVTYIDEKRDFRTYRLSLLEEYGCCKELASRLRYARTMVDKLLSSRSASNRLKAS
Method: PAGE, and then the stained band was excised from The raw data was processed using Proteome the polyacrylamide gel, washed twice with water, and Discoverer software (Thermo Fischer). MS2 spectra destained with 40% ACN/50 mM NH4HCO3. The gel were searched with SEQUEST engine against target Plk1 pieces were dehydrated with 100% ACN and dried for protein and common pollution proteins database (246 5 min using a speedvac. Disulfide bonds were reduced Protein Sequences). Database searches were performed by treatment with DTT (10 mM, 56°C, 45 min), and the with the following parameters: precursor mass tolerance free sulfhydryl groups were alkylated with iodoacetamide 20 ppm; MS/MS mass tolerance 0.6 Da; two missed (55 mM, 25°C, 60 min in the dark). After drying with cleavage for tryptic peptides; variable modifications a speedvac, the gel was rehydrated using 100 ng/μL oxidation (M), T521 fragment modification (+301.02) trypsin (50 mM NH4HCO3, pH8.3) on ice for 30 min, (K, R), fixed modification Carbamidomethyl (C), the and the digestion was carried out at 37°C for 60 min and results were filtered for a 1% false discovery rate (FDR) then quenched with 1.0% FA. The tryptic peptides were at the PSM level utilizing the percolator-based algorithm. extracted twice with 60% ACN containing 0.1% FA, and Peptide identifications were grouped into proteins then the combined digest solution was concentrated to 25 according to the law of parsimony. […]
B; 90–91 min, 80%–4% B; 91–100 min, 4% B. Eluting the calculation of mean residue ellipticity. […] Three MS spectra were acquired from m/z 300 to m/z 1,800, and independent experiments were performed for each sample. the 10 most intense ions with charges more than 2 and Spectral deconvolution of CD data was performed using above an intensity threshold 500 were fragmented in the CDNN to determine relative quantities of α-helix, linear ion trap using normalized collision energy of 35%. β-sheet, β-turn and random coil. […]

[4] = Body weight of xenografted nude mice (tolerability); format: in vivo; details: intratumoral injection 50 and 100 mg/kg, 5 weeks, vs control
Method: Female athymic nude mice were injected with 2.0 × 10^7 A549 lung-carcinoma cells subcutaneously. After 14~20 days, when the tumor volumes reached 100~150 mm^3, animals were divided into treatment (T521; 50, 100 mg/kg) and control (DMSO) groups with ten mice in each group. T521 (0.2 g/mL) dissolved in DMSO was administered alone and mice were treated with T521 by intratumoral injection at the different injection points according to indicated dose on Wednesdays and Fridays for 5 weeks. Tumor volumes were determined with a caliper on Monday and Thursday during drug administration cycle. Tumor volume (mm^3) was calculated using the following equation: V=L×S^2×π/6, where L is the length and S is width of the tumor. The body weight of these mice was determined as an indicator of tolerability on the same days. Student's t-tests were performed for statistical evaluation among treatment and control groups. All mice were properly treated in accordance with the guidelines of the local animal committee.

Plk1 PBD [5] = biological target: T1, Plk1 PBD; assay: Fluorescence polarization assay, Plk1 PBD / FITC-Poloboxtide; format: binding
Method: FP assay was performed as follow. […] We calculated the percentage of inhibition for each sample as follows: Inhibition(%)=Negative−Sample/Negative−Positive×100%
We plotted the inhibition values and determined IC50 using GraphPad Prism5.0. Together with the FITC-labeled peptides used for Plk1 PBD as mentioned above, the following peptides were used for specificity assays, FITC-GPMQTSpTPKNG-OH (Plk2 PBD), FITC-GPLATSpTPKNG-OH (Plk3 PBD).

CCS(=O)(=O)c1oc(-c2ccc(F)cc2)nc1S(=O)(=O)c1ccccc1 [T521, 5-(ethylsulfonyl)-2-(4-fluorophenyl)-4-(phenylsulfonyl) oxazole]
IC50 [1]: 1000 to 5000 nM
PARP cleavage [2]: increase of PARP cleavage
β-turn composition of Plk1 PBD complex (Plk1 PBD [3]; native Plk1 PBD 21.08%): 29.59%
α-helix composition of Plk1 PBD complex (Plk1 PBD [3]; native Plk1 PBD 26.18%): 11.63%
random coil composition of Plk1 PBD complex (Plk1 PBD [3]; native Plk1 PBD 34.80%): 41.46%
tolerability by body weight [4]: well tolerated
temperature dependence of inhibition of Plk1 PBD / FITC-Poloboxtide interaction (Plk1 PBD [5]; 1 hr incubation at indicated temperatures): more efficient at higher temperatures
IC50 (Plk1 PBD [5]; Plk1 PBD, FP assay, 1 hr preincubation at RT, read-out: Apparent IC50): 1220 ± 130 nM
time dependence of inhibition of Plk1 PBD / FITC-Poloboxtide interaction (Plk1 PBD [5]; incubation for indicated times at RT): inhibition increased over time
